Experimental data taken from US11241440B2, “Dihydrooxadiazine compounds for treating infections and cancer” (VALORALIA I MÁS D, SL, priority 2016, dated 2022).

What was measured:
S. prolificans = S. prolificans SP-003; cited from earlier work; further: key: I = intermediate activity; S = susceptibility; R = Resistance
Aspergillus flavus = assay: EUCAST broth dilution antifungal susceptibility test (MIC); format: cell-based; details: 100% inhibition, 24 hours at 35° C., dilution range 64 to 0.12 mg/l
Experimental: (§1) Filamentous fungi and yeasts strains, from clinical origin, were supplied by Microbiology Service from The Princess Hospital, Madrid. They are detailed in Table III. Filamentous fungi and yeast cells suspensions in distilled water was prepared from a culture of 24-48 h, depending on species, in Sabouraud agar. Each suspension was adjusted to a fixed size inoculum of 1-5×10^8 CFU/ml with a spectrophotometer (Ferraro, M J National Committee for Clinical Laboratory Standards. 2000). Antifungal susceptibility tests were developed following the standardized methodology detailed by the European Committee on Antimicrobial Susceptibility Testing (EUCAST) documents 7.2 (method for the determination of broth dilution minimum inhibitory concentrations of antifungal agents for yeasts EDef 7.2) and 9.2 (Method for the determination of broth dilution minimum inhibitory concentrations of antifungal agents for conidia forming foulds). The compound was dissolved in DMSO and diluted with RPMI plates with 2% glucose to pH 7 with MOPS buffer. […] Plates were inoculated with a yeast suspension or filamentous fungal spores (1-5×10^5 cls/ml). The results were evaluated after 24 hours incubation at 35° C. and absorbance reading at 530 nm.

Aspergillus terreus = assay: as above; format: cell-based; details: 100% inhibition, 24 hours at 35° C., dilution range 64 to 0.12 mg/l
Experimental: as §1

Scedosporium prolificans = assay: as above; format: cell-based; details: 100% inhibition, 24 hours at 35° C., dilution range 64 to 0.12 mg/l
Experimental: as §1

Aspergillus fumigatus = assay: as above; format: cell-based; details: 100% inhibition, 24 hours at 35° C., dilution range 64 to 0.12 mg/l
Experimental: as §1

A. terreus = A. terreus ATe-001; cited from earlier work; further: key: I = intermediate activity; S = susceptibility; R = Resistance
A. fumigatus = A. fumigatus AFu-001; cited from earlier work; further: key: I = intermediate activity; S = susceptibility; R = Resistance
A. flavus = A. flavus AF-001; cited from earlier work; further: key: I = intermediate activity; S = susceptibility; R = Resistance
C. parapsilosis = C. parapsilosis CP-007; cited from earlier work; further: key: I = intermediate activity; S = susceptibility; R = Resistance

MIC (minimum inhibitory concentration) (Aspergillus flavus) | MIC (minimum inhibitory concentration) (Aspergillus terreus) | MIC (minimum inhibitory concentration) (Scedosporium prolificans) | MIC (minimum inhibitory concentration) (Aspergillus fumigatus) | SMILES | Characteristics of the strains: susceptibility class (S. prolificans) | Characteristics of the strains: susceptibility class (A. terreus) | Characteristics of the strains: susceptibility class (A. fumigatus) | Characteristics of the strains: susceptibility class (A. flavus) | Characteristics of the strains: susceptibility class (C. parapsilosis)
1 | 0.5 | >8 | 0.5 | C[C@@H](c1ncncc1F)[C@](O)(Cn1cncn1)c1ccc(F)cc1F [Voriconazole] | R |  |  |  | 
1 | 2 | >16 | 0.5 | C[C@@H]1[C@H](O)[C@@H](C)/C=C/C=C/C=C/C=C/C=C/C=C/C=C/[C@H](O[C@@H]2O[C@H](C)[C@@H](O)[C@H](N)[C@@H]2O)C[C@@H]2O[C@](O)(C[C@@H](O)C[C@@H](O)[C@H](O)CC[C@@H](O)C[C@@H](O)CC(=O)O[C@H]1C)C[C@H](O)[C@H]2C(=O)O [Amphotericin B] | R | I | S | I | I
